Earlier results, collected in patent publication US12171869B2, “Intracameral drug delivery depots” (Incept, LLC., priority 2016, dated 2024).
Values joined by “and” are separate entries in the source; they are usually repeats but may differ in a detail not shown here. Identical values can stand only once.

Assays:
[1] = intracameral administration, clinical studies (Charters 2016); 10 μg dose
[2] = eye drop studies in humans (Faulkner et al., 2010; Martinez-de-la-Casa et al., 2012)
beagle = settings: 0.004% once a day, normal healthy beagles, 5 treatment days (Carvalho et al., 2006)

## CCNC(=O)CCC/C=C\C[C@@H]1[C@@H](/C=C/[C@@H](O)CCc2ccccc2)[C@H](O)C[C@@H]1O [bimatoprost]
[1]
  duration of IOP reduction: up to 4 months

## O=C(O)CCC/C=C\C[C@@H]1[C@@H](/C=C/[C@@H](O)COc2cccc(C(F)(F)F)c2)[C@H](O)C[C@@H]1O [travoprost free acid]
[2]
  travoprost free acid Cmax: ~2 ng/mL and ~3 ng/mL

## CC(C)OC(=O)CCC/C=C\C[C@@H]1[C@@H](/C=C/[C@@H](O)COc2cccc(C(F)(F)F)c2)[C@H](O)C[C@@H]1O [travoprost, isopropyl (Z)-7-[(1R,2R,3R,5 S)-3,5-dihydroxy-2-[(1E,3R)-3-hydroxy-4-[(α,α,α-trifluoro-m-tolyl)oxy]-1-butenyl]cyclopentyl]-5-heptenoate]
beagle
  hyperemia: hyperemia for the entire treatment period
